# Patent publication US20220251625A1, “NOVEL DIAGNOSTIC MARKER FOR PANCREATIC CANCER” (URTESTE S.A., priority 2019, published 2022)
# Where “and” joins values, the source holds several entries; their conditions need not be identical. Equal values may be shown once. Numbered stars: 1 amine (or outer) side, 2 acyl side, 3 side chain; on linkers, the order of the positions; unused ones are H or OH. Square brackets hold non-standard residues; d marks the D form. Ends that are not written are not given here. Benzoyl(5-NH,2-NO2) = O=C(c1cc(N[*:1])ccc1[N+](=O)[O-])[*:2]; 2Abz = Nc1ccccc1C(=O)O
# Columns and labels:
# Assay type in all cases: biochemical, human
# [1] = tested on: proteolytic enzymes in urine; test: Hydrolysis of chromogenic peptide substrate in urine samples, absorbance at 405 nm; parameters: rate of hydrolysis of substrate: unit not given here; details: for rate of hydrolysis of substrate: triplicate, 37° C., pH 8.0, 405 nm
# Description: Arabic numbers indicate the number of the selected urine sample. […] The result indicates the absence of proteolytic enzymes characteristic of pancreatic cancer.
# Arabic numbers indicate the number of the selected urine sample. A similar result as described above for FIG. 1 is obtained.
# The study on the application of new compounds was performed on a group of 10 patients diagnosed with pancreatic cancer. For this purpose, the compound with formula 2: ABZ-Thr-Thr-Ala-Arg-ANB-NH2 or formula 3: ABZ-Thr-Thr-Ala-Arg-pNA was dissolved in dimethyl sulfoxide (at a concentration of 0.5 mg/mL); 50 μL of this solution was mixed with 120 μl buffer (200 mM Tris-HCl, pH 8.0) and 80 μL of urine of a person with pancreatic cancer. The measurement was made in a 96-well plate designed for measuring absorbance, and each sample was analysed in triplicate at 37° C. The duration of the measurement was 60 minutes. During the measurement, the wavelength characteristic of the released chromophore (ANB-NH2 or pNA) was monitored at 405 nm (range 380-430 nm).
# As a result of the measurement, the colour of the solution increased over time in all urine samples from patients diagnosed with pancreatic cancer. The observed absorbance increase over time was different for each of the tested samples.
# [2] = tested on: proteolytic enzymes in urine; test: RP HPLC analysis of substrate hydrolysis in urine of a person diagnosed with pancreatic cancer; details: urine from a person diagnosed with pancreatic cancer
# Description: A: ABZ-Thr-Thr-Ala-Arg-ANB NH2 substrate in 200 mM Tris-HCl buffer, pH 8.0. B: Hydrolysis of ABZ-Thr-Thr-Ala-Arg-ANB NH2 substrate in urine of patients diagnosed with pancreatic cancer.
# [3] = tested on: proteolytic enzymes in urine; test: Hydrolysis of chromogenic peptide substrate in urine samples, absorbance at 405 nm; details: urine samples from healthy individuals (15 samples)
# [4] = tested on: proteolytic enzymes in urine; test: Degree of substrate hydrolysis versus pH of the reaction environment; parameters: degree of substrate hydrolysis: unit not given here; details: for degree of substrate hydrolysis: triplicate
# Description: Tested pH values are indicated on the x-axis. The relationship between proteolytic activity and pH of reaction environment was assessed.
# [5] = urine sample 1, patient diagnosed with pancreatic cancer
# [6] = urine sample 3, patient diagnosed with pancreatic cancer
# [7] = urine sample 4, patient diagnosed with pancreatic cancer
# [8] = urine sample 5, patient diagnosed with pancreatic cancer
# [9] = urine sample 6, patient diagnosed with pancreatic cancer
# [10] = urine sample 7, patient diagnosed with pancreatic cancer
# [11] = urine sample 8, patient diagnosed with pancreatic cancer
# [12] = urine sample 9, patient diagnosed with pancreatic cancer
# [13] = urine sample 10, patient diagnosed with pancreatic cancer
Substance,"rate of hydrolysis of substrate [1, 5]","rate of hydrolysis of substrate [1, 6]","rate of hydrolysis of substrate [1, 7]","rate of hydrolysis of substrate [1, 8]","rate of hydrolysis of substrate [1, 9]","rate of hydrolysis of substrate [1, 10]","rate of hydrolysis of substrate [1, 11]","rate of hydrolysis of substrate [1, 12]","rate of hydrolysis of substrate [1, 13]",cleavage products by RP HPLC [2],further results
"ABZ-Thr-Thr-Ala-Arg-ANB-NH2 ([2Abz]TTAR-{Benzoyl(5-NH,2-NO2)-NH2}) [chromogenic peptide; ABZ is 2-aminobenzoic acid, ANB-NH2 is amide of 5-amino-2-nitrobenzoic acid]",0.128 and 0.152 and 0.2109,0.07457 and 0.07826 and 0.07178,0.03727 and 0.03636 and 0.03044,0.02734 and 0.01944 and 0.02312,0.04416 and 0.04476 and 0.04487,0.02666 and 0.02332 and 0.025,0.02045 and 0.02486 and 0.02345,0.00647 and 0.00797 and 0.00596,0.08668 and 0.1146 and 0.08522,break down into the ABZ-Thr-Thr-Ala-Arg peptide fragment and chromophore,hydrolysis of the substrate / increase of colour (absorbance) over time ([1]; urine of patients diagnosed with pancreatic cancer (samples 1-10)): all samples 1-10 disintegrated; increase in absorbance (hydrolysis of the test compound) [3]: does not lead to an increase in absorbance; relationship between proteolytic activity and pH of reaction environment [4]: maximum activity at alkaline pH; degree of substrate hydrolysis ([4]; pH 3): 0; degree of substrate hydrolysis ([4]; pH 4): 0; degree of substrate hydrolysis ([4]; pH 5): 0; degree of substrate hydrolysis ([4]; pH 6): 0; degree of substrate hydrolysis ([4]; pH 7): 0; degree of substrate hydrolysis ([4]; pH 8): 0.07661 and 0.07534 and 0.09735; degree of substrate hydrolysis ([4]; pH 9): 0
ABZ-Thr-Thr-Ala-Arg-pNA,0.22 and 0.189 and 0.2109,0.01632 and 0.01669 and 0.01723,0.01727 and 0.01636 and 0.01044,0.05734 and 0.05944 and 0.06152,0.05416 and 0.05476 and 0.05487,0.02666 and 0.02332 and 0.025,0.02045 and 0.02486 and 0.02345,0.01947 and 0.01797 and 0.01896,0.1167 and 0.1146 and 0.1052,break down into the ABZ-Thr-Thr-Ala-Arg peptide fragment and chromophore,"rate of hydrolysis of substrate ([1]; urine sample 2, patient diagnosed with pancreatic cancer): 0.07457 and 0.07826 and 0.07178"
